Source: article PMC7071106 (Molecules, 2020)
Where two headings read alike, the source gives them in different places.

How the values were obtained:
Giardia duodenalis = experiment: In vitro giardicidal susceptibility assay (trophozoite growth inhibition); type: cell-based, Giardia duodenalis (G. intestinalis strain IMSS:0696:1); conditions: for SI = CC50/IC50 G. duodenalis: CC50 VERO cells / IC50 G. duodenalis; for IC50: trophozoites, 48 h incubation then 48 h subculture, means of three experiments, read-out: IC50 G. duodenalis
Description: (§1) G. intestinalis strain IMSS:0696:1 and T. vaginalis strain GT3 were cultured in TYI-S-33 medium, complemented with 10% calf serum and bovine bile. […] Subsequently, trophozoites were washed and subcultured for another 48 h in fresh medium without any drugs. Once this time was reached, trophozoites were counted and the median inhibitory concentration (IC50) was calculated. All the experiments were completed in triplicate.

[1] = Cytotoxicity on VERO cell line (sulforhodamine B method); type: cell-based, mammalian; conditions: African green monkey, 1–100 µM, means of three experiments
Description: We cultivated 1.5 × 10^4 VERO cells in a 96-well plate and incubated in DMEM media complemented with 10% fetal bovine serum, 100 µg/mL streptomycin, and 100 UI/mL penicillin. The culture was incubated at 37 °C in a 5% CO2 atmosphere with 95% humidity for 48 h. […] After 48 h of incubation, viability of the cells was estimated using the sulforhodamine B method. The concentration of the compounds that killed 50% of the cells (CC50) was calculated by nonlinear fit (GraphPad Prism 4 software). All concentrations were evaluated in triplicate.

Trichomonas vaginalis = experiment: In vitro trichomonicidal susceptibility assay (trophozoite growth inhibition); type: cell-based, Trichomonas vaginalis strain GT3; conditions: for SI = CC50/IC50 T. vaginalis: CC50 VERO cells / IC50 T. vaginalis; for IC50: Trichomonas vaginalis, trophozoites, 48 h incubation then 48 h subculture, means of three experiments, read-out: IC50 T. vaginalis
Description: as §1

Cc1ncc([N+](=O)[O-])n1CCOC(=O)NC1CCCCC1 [Compound 1, 2-(2-methyl-5-nitro-1H-imidazol-1-yl)ethyl cyclohexylcarbamate]
SI = CC50/IC50 G. duodenalis (Giardia duodenalis): >217
IC50 (Giardia duodenalis; Giardia duodenalis, 48 h): 0.46 ± 0.01 µM
CC50 at 48 h ([1]; VERO cells): > 100 µM
SI = CC50/IC50 T. vaginalis (Trichomonas vaginalis): >1666
IC50 (Trichomonas vaginalis): 0.06 ± 0.01 µM

Cc1ncc([N+](=O)[O-])n1CCOC(=O)Nc1ccccc1 [Compound 2, 2-(2-methyl-5-nitro-1H-imidazol-1-yl)ethyl phenylcarbamate]
SI = CC50/IC50 G. duodenalis (Giardia duodenalis): >102
IC50 (Giardia duodenalis): 0.98 ± 0.01 µM
CC50 at 48 h ([1]; VERO cells): > 100 µM
SI = CC50/IC50 T. vaginalis (Trichomonas vaginalis): >1111
IC50 (Trichomonas vaginalis): 0.09 ± 0.01 µM

Cc1ncc([N+](=O)[O-])n1CCOC(=O)Nc1ccc(Cl)cc1 [Compound 3, 2-(2-methyl-5-nitro-1H-imidazol-1-yl)ethyl (4-chlorophenyl)carbamate]
SI = CC50/IC50 G. duodenalis (Giardia duodenalis): >87
IC50 (Giardia duodenalis; Giardia duodenalis, 48 h): 1.14 ± 0.12 µM
CC50 at 48 h ([1]; VERO cells): > 100 µM
SI = CC50/IC50 T. vaginalis (Trichomonas vaginalis): >55
IC50 (Trichomonas vaginalis): 1.79 ± 0.12 µM

Cc1ncc([N+](=O)[O-])n1CCOC(=O)Nc1ccc(F)cc1 [Compound 4, 2-(2-methyl-5-nitro-1H-imidazol-1-yl)ethyl (4-fluorophenyl)carbamate]
SI = CC50/IC50 G. duodenalis (Giardia duodenalis): >49
IC50 (Giardia duodenalis; Giardia duodenalis, 48 h): 2.03 ± 0.01 µM
CC50 at 48 h ([1]; VERO cells): > 100 µM
SI = CC50/IC50 T. vaginalis (Trichomonas vaginalis): >31
IC50 (Trichomonas vaginalis): 3.22 ± 0.21 µM

Cc1ncc([N+](=O)[O-])n1CCOC(=O)Nc1ccc([N+](=O)[O-])cc1 [Compound 5, 2-(2-methyl-5-nitro-1H-imidazol-1-yl)ethyl (4-nitrophenyl)carbamate]
SI = CC50/IC50 G. duodenalis (Giardia duodenalis): >41
IC50 (Giardia duodenalis; Giardia duodenalis, 48 h): 2.43 ± 0.02 µM
CC50 at 48 h ([1]; read-out: CC50 VERO Cells): > 100 µM
SI = CC50/IC50 T. vaginalis (Trichomonas vaginalis): >16
IC50 (Trichomonas vaginalis): 6.25 ± 0.12 µM

Cc1ncc([N+](=O)[O-])n1CC(C)OC(=O)NC1CCCCC1 (centres unmarked) [Compound 6, 1-methyl-2-(2-methyl-5-nitro-1H-imidazol-1-yl)ethyl cyclohexylcarbamate]
SI = CC50/IC50 G. duodenalis (Giardia duodenalis): >37
IC50 (Giardia duodenalis; Giardia duodenalis, 48 h): 2.64 ± 0.61 µM
CC50 at 48 h ([1]; VERO cells): > 100 µM
melting point: 219.2 to 222.7 °C
SI = CC50/IC50 T. vaginalis (Trichomonas vaginalis): >11
IC50 (Trichomonas vaginalis): 8.64 ± 0.73 µM

Cc1ncc([N+](=O)[O-])n1CC(C)OC(=O)Nc1ccccc1 (centres unmarked) [Compound 7, 1-methyl-2-(2-methyl-5-nitro-1H-imidazol-1-yl)ethyl phenylcarbamate]
SI = CC50/IC50 G. duodenalis (Giardia duodenalis): >59
IC50 (Giardia duodenalis; Giardia duodenalis, 48 h): 1.67 ± 0.21 µM
CC50 at 48 h ([1]; VERO cells): > 100 µM
melting point: 238.9 to 240.5 °C
SI = CC50/IC50 T. vaginalis (Trichomonas vaginalis): >15
IC50 (Trichomonas vaginalis): 6.52 ± 0.71 µM

Cc1ncc([N+](=O)[O-])n1CC(C)OC(=O)Nc1ccc(Cl)cc1 (centres unmarked) [Compound 8, 1-methyl-2-(2-methyl-5-nitro-1H-imidazol-1-yl)ethyl (4-chlorophenyl)carbamate]
SI = CC50/IC50 G. duodenalis (Giardia duodenalis): >24
IC50 (Giardia duodenalis; Giardia duodenalis, 48 h): 4.05 ± 0.24 µM
CC50 at 48 h ([1]; VERO cells): > 100 µM
melting point: 268.1 °C (dec.)
SI = CC50/IC50 T. vaginalis (Trichomonas vaginalis): >16
IC50 (Trichomonas vaginalis): 5.93 ± 0.51 µM

Cc1ncc([N+](=O)[O-])n1CC(C)OC(=O)Nc1ccc(F)cc1 (centres unmarked) [Compound 9, 1-methyl-2-(2-methyl-5-nitro-1H-imidazol-1-yl)ethyl (4-fluorophenyl)carbamate]
SI = CC50/IC50 G. duodenalis (Giardia duodenalis): >30
IC50 (Giardia duodenalis; Giardia duodenalis, 48 h): 3.23 ± 0.11 µM
CC50 at 48 h ([1]; VERO cells): > 100 µM
melting point: 162.3 to 163.5 °C
SI = CC50/IC50 T. vaginalis (Trichomonas vaginalis): >20
IC50 (Trichomonas vaginalis): 4.82 ± 1.08 µM

Cc1ncc([N+](=O)[O-])n1CC(C)OC(=O)Nc1ccc([N+](=O)[O-])cc1 (centres unmarked) [Compound 10, 1-methyl-2-(2-methyl-5-nitro-1H-imidazol-1-yl)ethyl (4-nitrophenyl)carbamate]
SI = CC50/IC50 G. duodenalis (Giardia duodenalis): >116
IC50 (Giardia duodenalis; Giardia duodenalis, 48 h): 0.86 ± 0.09 µM
CC50 at 48 h ([1]; read-out: CC50 VERO Cells): > 100 µM
melting point: 235.4 °C (dec.)
SI = CC50/IC50 T. vaginalis (Trichomonas vaginalis): >10
IC50 (Trichomonas vaginalis): 9.99 ± 0.56 µM

Cc1ncc([N+](=O)[O-])n1CCO [Metronidazole, metronidazole, reference compound]
CC50 at 48 h ([1]; VERO cells): > 100 µM
IC50 (Trichomonas vaginalis): 0.93 ± 0.12 µM

Cc1ncc([N+](=O)[O-])n1CC(C)O (centres unmarked) [Secnidazole, secnidazole, reference compound]
SI = CC50/IC50 G. duodenalis (Giardia duodenalis): >24
IC50 (Giardia duodenalis; Giardia duodenalis, 48 h): 4.11 ± 0.12 µM
CC50 at 48 h ([1]; VERO cells): > 100 µM
SI = CC50/IC50 T. vaginalis (Trichomonas vaginalis): >7
IC50 (Trichomonas vaginalis): 13.5 ± 1.23 µM
